This passage reports IC50 results from patent US7087758B2, “Quinoline inhibitors of hyaki and hyak3 kinases” (SmithKline Beecham Corporation, priority 2001, dated 2006).

The test has as its target T1, hYAK1 (Homo sapiens, UniProt Q92630).
T1 construct: DET1/DET2-tagged full length hYAK1 was expressed in Drosophila sf9 cells; DET1/DET2 tag (purified on Ni column); made in house; host or cells: "Drosophila sf9 cells" as printed (insect cells)
T1 sequence (Q92630 1-528 isoform Q92630-2): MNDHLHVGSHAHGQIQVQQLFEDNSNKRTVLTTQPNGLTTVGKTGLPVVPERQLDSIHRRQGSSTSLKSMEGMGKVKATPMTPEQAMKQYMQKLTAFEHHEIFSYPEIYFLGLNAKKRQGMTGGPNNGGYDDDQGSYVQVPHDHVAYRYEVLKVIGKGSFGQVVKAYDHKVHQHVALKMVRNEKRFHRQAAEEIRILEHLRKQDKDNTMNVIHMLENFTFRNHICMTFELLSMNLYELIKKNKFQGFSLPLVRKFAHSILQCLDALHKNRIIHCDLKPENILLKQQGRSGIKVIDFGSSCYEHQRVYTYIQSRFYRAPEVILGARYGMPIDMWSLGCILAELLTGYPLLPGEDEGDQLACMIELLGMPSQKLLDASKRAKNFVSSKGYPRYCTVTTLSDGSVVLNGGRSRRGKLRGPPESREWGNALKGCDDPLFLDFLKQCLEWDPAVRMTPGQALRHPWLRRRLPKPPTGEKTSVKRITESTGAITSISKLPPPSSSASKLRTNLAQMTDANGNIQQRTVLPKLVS
The test can be described thus: FlashPlate kinase assay of hYAK1 (Ni-hYAK1). Format: biochemical. On the procedure:
This same assay can be performed on a FlashPlate format in which the plate is coated with MBP or with the S164 peptide by incubation overnight at 4° C. in 100 ul of either substrate dissolved in Sodium Carbonate buffer, pH 8.8. When coating with MBP, a solution of 100 ug/ml MBP was used to coat wells with 100 ul (10 ug) MBP per well. When coating with Ser164, a solution of 0.4 mg/ml (0.25 mM) was used to coat wells with 100 ul (40 ug) Ser164 per well. An example of a FlashPlate assay protocol and typical results are given below:
• 1. Coat Maxisorp plates (Nunk, Immunoplate, Maxisorp™) with MBP or Ser164 as above. • 2. Wash plates once with kinase assay buffer (KB): 25 mM Hepes, pH 7.5; 0.2 mM NaV; 10 mM.-glycerol phosphate; 1 mM Na pyrophosphate • 3. Add enzyme (Ni-hYAK1, diluted in KB), DMSO or inhibitors (in KB) and keep on ice 30 min • 4. Add KB containing Mg/AJP to a [final] of 0.1 mM [.-33P]ATP and 10 mM MgCl2 • 5. Incubate with shaking, 1–2 hrs, RT • 6. Aspirate and wash 6×0.5 ml KB • 7. Read 33P incorporation in FP reader • 8. Blank=No enzyme added • 9. Reaction volume: 25, 50 or 100 ul • 10. 0.5 or 1.0 uCi 33P/0.1 mM ATP • 11. MBP-FP better than basic FP (in house coating) • 12. 37° C. incubation was not better (several time points) • 13. Other incubation times at RT were not better Results: […]

Structures are written as SMILES. Where “and” joins values, the source holds several entries; their conditions need not be identical. Equal values may be shown once.

For `COC(=O)[C@@]1(O)C[C@H]2O[C@]1(C)n1c3ccccc3c3c4c(c5c6ccccc6n2c5c31)C(=O)NC4` [Example K252a], the IC50 (as a rule, the concentration that gives 50% inhibition) (0.3 ug hYAK1) was 0.552 µM and 0.427 µM.

As to `NC1=N/C(=C2/CCNC(=O)c3[nH]c(Br)cc32)C(=O)N1` [SKF-108752], the half-inhibitory concentration (IC50) was 0.19 µM (0.1 ug hYAK1); 0.13 µM and 0.16 µM (0.3 ug hYAK1).
